Read-outs that look alike come from different tables or passages of the source. Square brackets hold non-standard residues; d marks the D form. Ends that are not written are not given here. Peptide text beside a SMILES is read from it. pY = N[C@@H](Cc1ccc(OP(=O)(O)O)cc1)C(=O)O
Key:
His-tagged Stat3 = target: T1, His-tagged Stat3 (Mus musculus, UniProt P42227); assay: Surface Plasmon Resonance analysis of binding to immobilized His-tagged Stat3; set-up: species or system murine
T1 construct: Coding regions for the murine Stat3 protein; made in house; host or cells: E. coli BL21(DE3)
T1 sequence (P42227 whole entry): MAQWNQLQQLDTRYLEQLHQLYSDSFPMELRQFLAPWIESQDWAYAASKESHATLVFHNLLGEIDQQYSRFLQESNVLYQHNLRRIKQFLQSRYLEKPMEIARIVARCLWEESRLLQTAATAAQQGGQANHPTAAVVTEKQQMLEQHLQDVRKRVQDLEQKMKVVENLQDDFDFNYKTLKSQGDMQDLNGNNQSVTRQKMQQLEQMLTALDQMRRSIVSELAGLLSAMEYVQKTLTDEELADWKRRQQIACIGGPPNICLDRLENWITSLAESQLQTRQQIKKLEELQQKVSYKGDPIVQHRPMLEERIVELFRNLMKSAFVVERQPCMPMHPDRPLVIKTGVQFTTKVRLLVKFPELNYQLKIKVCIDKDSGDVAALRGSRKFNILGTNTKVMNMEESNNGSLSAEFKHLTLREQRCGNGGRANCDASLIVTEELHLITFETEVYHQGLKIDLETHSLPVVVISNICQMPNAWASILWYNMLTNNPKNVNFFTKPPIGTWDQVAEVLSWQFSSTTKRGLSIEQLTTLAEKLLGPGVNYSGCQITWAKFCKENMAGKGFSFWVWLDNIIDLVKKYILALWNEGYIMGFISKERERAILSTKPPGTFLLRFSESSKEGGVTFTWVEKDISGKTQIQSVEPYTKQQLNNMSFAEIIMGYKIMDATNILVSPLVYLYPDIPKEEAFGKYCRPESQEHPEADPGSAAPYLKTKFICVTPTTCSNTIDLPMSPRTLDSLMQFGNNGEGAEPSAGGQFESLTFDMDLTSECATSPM
Description: (§1) Coding regions for the murine Stat3 protein and Stat3 SH2 domain were amplified by PCR and cloned into vectors pET-44 Ek/LIC (Novagen) and pET SUMO (Invitrogen), respectively.
Clones were sequenced to verify the correct sequences and orientation. His-tagged recombinant proteins were expressed in BL21(DE3) cells, and purified on Ni-ion sepharose column.
SensiQ and its analysis software Qdat (ICX Technologies, Oklahoma City, Okla.) were used to analyze the interaction between agents and the Stat3 protein and to determine the binding affinity. Purified Stat3 was immobilized on a HisCap Sensor Chip by injecting 50 µg/ml of Stat3 onto the chip. […] The association and dissociation rate constants were calculated using the Qdat software. The ratio of the association and dissociation rate constants was determined as the affinity (KD).
To provide definitive evidence of direct binding to Stat3, biophysical studies were performed. H1s-tagged Stat3 protein (or SH2 domain; 50 ng) was immobilized on a Ni-NTA sensor chip surface for Surface Plasmon Resonance analysis of the binding of 531201.1066 as the analyte. Association and dissociation measurements were taken and the binding affinity of S31-201.1066 for Stat3 was determined using Qdat software.

Stat3 [1] = target: T2, Stat3 (Mus musculus, UniProt P42227); assay: Fluorescence Polarization assay, Stat3 binding to 5-carboxyfluorescein-GpYLPQTV-NH2 probe; set-up: Coding regions for the murine Stat3 protein; made in house; host or cells: E. coli BL21(DE3); species or system murine
T2 sequence (P42227 whole entry): as above
Experimental: as §1
Fluorescence Polarization (FP) Assay was conducted as previously reported (23), with some modification using the phospho-peptide, 5-carboxyfluorescein-GpYLPQTV-NH2 (phosphorylated SEQ ID NO:7) (where pY represents phospho-Tyr) as probe and Stat3. The FP assay was used to evaluate the binding of agents to Stat3 and to determine the ability to disrupt the Stat3:pTyr peptide interaction. A fixed concentration of the fluorescently-labeled peptide probe (10 nM) was incubated with increasing concentration of the Stat3 protein for 30 min at room temperature in the buffer, 50 mM NaCI, 10 mM HEPES, 1 mM EDTA, 0.1% Nonidet P-40, and the fluorescent polarization measurements were determined using the POLARstar Omega (BMG LABTECH, Durham, N.C.), with the set gain adjustment at 35 mP. The Z′ value was derived per the equation Z′=1−(3 SDbound+3 SD free)/(mPbound−mPfree), where SD is the standard deviation and mP is the average of fluorescence polarization. In the bound state, 10 nM 5-carboxyfluorescein-GpYLPQTV-NH2 (phosphorylated SEQ ID NO:7) was incubated with 150 nM purified Stat3 protein, while the free (unbound) state was the same mixture, but incubated with an additional 10 IJM unlabeled Ac-GpYLPQTV-NH2 (phosphorylated SEQ ID NO:7). For evaluating agents, Stat3 protein (150 nM) was incubated with serial concentrations of S31-201.1066 at 30° C. for 60 min in the indicated assay buffer conditions. Prior to the addition of the fluorescence probe, the protein:S31-201.1066 mixtures were allowed to equilibrate at room temperature for 15 min. Probe was added at a final concentration of 10 nM and incubated for 30 min at room temperature following which the FP measurements were taken using the POLARstar Omega, with the set gain adjustment at 35 mP.
The FP assay was used to further test the computational modeling prediction of the ability of S31-201.1066 to disrupt Stat3 interaction with its cognate pTyr peptide.

Stat3 [2] = target: T2, Stat3; set-up: Coding regions for the murine Stat3 protein; made in house; host or cells: E. coli BL21(DE3); settings: cited from earlier work
Stat3 [3] = target: T2, Stat3; set-up: endogenous in cells; host or cells: NIH3T3/v-Src mouse fibroblasts (nuclear extract); settings: read-out: IC50, disruption of Stat3 DNA-binding activity in vitro; previously reported (22); cited from earlier work
Stat3 [4] = target: T2, Stat3; assay: Stat3 DNA-binding assay in vitro (EMSA, hSIE probe), nuclear extracts of NIH3T3/v-Src; format: biochemical; set-up: endogenous in cells; host or cells: NIH3T3/v-Src mouse fibroblasts (nuclear extract); settings: 30 min pre-incubation at room temperature, read-out: IC50, inhibition of Stat3 DNA-binding activity in vitro
Experimental: Nuclear extract preparations and electrophoretic mobility shift assay (EMSA) were carried out as previously described (28,33). […] Except where indicated, nuclear extracts were pre-incubated with compound for 30 min at room temperature prior to incubation with the radiolabeled probe for 30 min at 30° C. before subjecting to EMSA analysis.

[5] = system: NIH3T3/v-Src, MDA-MB-231 and Panc-1 cells; settings: previously reported (18); cited from earlier work

Compound: CC(C)C[C@H](NC(=O)[C@H](Cc1ccc(OP(=O)(O)O)cc1)NC(=O)CN)C(=O)N1CCC[C@H]1C(=O)N[C@@H](CCC(N)=O)C(=O)N[C@H](C(=O)N[C@H](C(N)=O)C(C)C)[C@@H](C)O [GpYLPQTV-NH2] (H-G[pY]LPQTV-NH2)
- Kd (His-tagged Stat3): 24 nM
- IC50 (Stat3 [1]; 150 nM Stat3, 10 nM probe, read-out: IC50, disruption of Stat3 binding to pTyr peptide probe): 300 nM
- IC50 (Stat3 [2]; read-out: IC50, reported, reported (21)): 290 ± 63 nM
- IC50 (Stat3 [2]; read-out: IC50 in FP assay, previously reported value, previously reported (23)): 250 ± 30 nM
- Kd (Stat3 [2]; read-out: affinity for Stat3, reported, reported (23)): 150 ± 10 nM
- IC50 (Stat3 [3]): 150 nM

Compound: Cc1ccc(S(=O)(=O)N(C)CC(=O)N(Cc2ccc(C3CCN(c4ccc(C#N)cc4)CC3)cc2)c2ccc(C(=O)O)c(O)c2)cc1 [S3I-201.2096]
- IC50 (Stat3 [4]): 45000 nM

Compound: Cc1ccc(S(=O)(=O)OCC(=O)Nc2ccc(C(=O)O)c(O)c2)cc1 [S3I-201]
- concentration of antitumor cell activity previously reported for the lead agent [5]: 100 µM

Compound: GYLPQTV-NH2 [reference compound]
- binding to Stat3 (SPR) (His-tagged Stat3; SPR, immobilized His-Stat3): little evidence of significant binding
- effect on the fluorescent polarization signal (Stat3 [1]; data not shown): no evidence of effect

— patent publication US8895746B2 (University of Central Florida Research Foundation, Inc., priority 2009, dated 2014)
